Values of other authors as cited in patent US20130316010A1, “POLYMERIC MICROPARTICLES” (Case Western Reserve University, priority 2010, published 2013).

Tested on: EGFR
Conditions: rodent glaucomatous optic neuropathy model and optic nerve crush model

AG1478
EGFR upregulation and activation of astrocytes: reverses this upregulation and activation of astrocytes | survival of RGCs: increases the survival of RGCs
